# Data reported in patent US11617356B2, “Mouse lymphoma cell line and animal model of human high grade B-cell lymphoma” (PÉCSI TUDOMÁNYEGYETEM, priority 2015, dated 2023).
# Tested on: Bc-DLFL.1 cells
# Assay: short-term in vitro survival of Bc-DLFL.1 cells on addition of recombinant BAFF
# Format: cell-based, mouse
# Conditions: addition of recombinant BAFF to culture; data not shown
# From the text: The specific conditions needed to propagate Bc-DLFL.1 raised the dependence of this lymphoma for tissue-derived factors for survival. The most likely candidates are the different receptors for BAFF. […] In normal B-cell development, TACI and BCMA is expressed following activation during plasmacytic differentiation, while BAFF-R disappears. BAFF-R is more characteristic of mature resting B-cells.
substance,measurement,value
"recombinant BAFF: recombinant BAFF, ligand of BAFF-R, BCMA and TACI, added to Bc-DLFL.1 cells in vitro",short-term in vitro survival of Bc-DLFL.1 cells,moderately increased
